The results in this text go back to patent US12493040B2, “Cancer detection method using sense of smell of nematode” (HIROTSU BIO SCIENCE INC., priority 2013, dated 2025).

Test [1] has as its system ASH neurons. The test is described as follows: Calcium imaging (YC3.60, microfluidic device) of ASH neurons to diacetyl. The class given is in vivo, Caenorhabditis elegans. The method, then: (§1) In order to monitor the response of the AWA, AWB, AWC and ASH neurons, the present inventor has produced strains expressing YC3.60, using odr-10, str-1, odr-3, and sra-6 promoters (11, 15, 20, and 45), respectively. As previously reported (33, 46, 47), calcium imaging was carried out using a microfluidic device. In an experiment using such a microfluidic device, a nematode was captured by a microchannel such that the nose of the nematode was exposed to running water containing a solution of diacetyl [10^−5-diluted (low concentration) and 10^−3-diluted (high concentration)], or a solution with no smell, and thus, each nematode was immobilized. The room temperature was set from 20° C. to 23° C. The fluorescence image of YC3.60 was taken using Zeiss Axioplan 2 comprising 40× objective lens and a 3CCD digital camera (C7780, Hamamatsu Photonics). All images were recovered at an exposure time of 200 ms. The time stacks of AWA, AWB, AWC, and ASH cell bodies were captured, and thereafter, using AquaCosmos software (ver. 2.6, Hamamatsu Photonics), the emission ratio between a yellow fluorescent protein (YFP) and a cyan fluorescent protein (CFP) was analyzed. This ratio was calculated as YEP intensity/CFP intensity (R), and the average ratio in 10-second window (−10 to 0 seconds) was set as RO.

Test [2] has as its system RNAi-treated eri-1 (mg366) nematodes. Nature of the test: RNAi screening of olfactory receptor genes: chemotaxis assay of RNAi-treated nematodes to odorants. The format is in vivo, Caenorhabditis elegans. The protocol:
The RNAi assay was carried out by performing an RNAi method involving the feeding (feeding RNAi method) of eri-1 (mg366) (19), using an Ahringer library (37).
(§2) Nine adult eri-1 mutants were placed on an NGM plate containing isopropyl 1-D-1-thiogalactopyranoside (0.19 g/L), ampicillin (60 mg/L), and Escherichia coli (E. coli), and were then cultured for 4 days. Subsequently, the adult worms were used in a chemotaxis assay. The chemotaxis assay was carried out as previously reported (6, 17). In the chemotaxis assay, the present inventor has used 30 to 50 worms in each experiment in which 1 μl of 10^−3- or 10^−4-diluted odorant (low concentration), or 1 and 5 μl of undiluted odorants (high concentration) were used.
The z score and a control value in each single test from 2SD were calculated in all days (Table 3) or every day. The z score was used as a threshold indicating a great difference (−1.96 and 1.96, P<0.05). […] Accordingly, the present inventor has used the z score±1 (−0.96 and 0.96, P<0.33) as a weaker threshold.

Test [3] concerns AWA neurons. The test is described as follows: Calcium imaging (YC3.60, microfluidic device) of AWA neurons to diacetyl. The class given is in vivo, Caenorhabditis elegans. The method, then:
as §1

The subject of test [4] is AWB neurons. The test is described as follows: Calcium imaging (YC3.60, microfluidic device) of AWB neurons to diacetyl. The class given is in vivo, Caenorhabditis elegans. The protocol:
as §1

Test [5] has as its system AWC neurons. Nature of the test: Calcium imaging (YC3.60, microfluidic device) of AWC neurons to diacetyl. The class given is in vivo, Caenorhabditis elegans. As to conditions: wild-type; removal of high concentration of diacetyl (10^−3 diluted). The protocol: as §1
Test [6] deals with nematodes (C. elegans). Nature of the test: Chemotaxis assay of wild-type, mutant, neuron-specific knockdown, neuron-ablated or interneuron-inhibited nematodes to odorants. The class given is in vivo, Caenorhabditis elegans. The protocol: Except for the eri-1 mutant that was cultured with Escherichia coli (E. coli) OP50, the nematodes (C. elegans) were cultured at 20° C. under standard conditions in a nematode growth medium (NGM) plate (36) comprising Escherichia coli NA22 as a food source. The used wild-type nematodes were of a Bristol N2 strain. As other nematode strains, GR1373: eri-1 (mg366), VC2123: sri-14 (ok2865), CX3410: odr-10 (ky225), and MT7929: unc-13 (e51) were used.
as §2
A gene to knock down the function of sri-14 in specific neurons was constructed, as previously reported (24). The target region of sri-14 (a 1.6-kb genome sequence) was amplified using the following two primers: […]
The gene expression of ASH was carried out using a sra-6 (20) promoter, and that of AWC was carried out using ceh-36 (39) and srd-17 promoters.
The present inventor has used mouse caspase-1 (mCasp1) for ablation of the AWA, AWB, AWC and ASH neurons. mCasp1 was each expressed by odr-10 (11), str-1 (15), ceh-36 (39), and sra-6 (20) promoters, respectively. Moreover, for inhibition of interneurons, unc-103 (gf) was used. The AIA-, AIB-, AIY-, or AIZ-specific expression of the unc-103 (gf) was carried out using a gcy-28.d (29), npr-9 (40), ttx-3 (41, 42), or lin-11 (43, 44) promoter, respectively.
Total RNA, which had been isolated using PureLink RNA Minikit (Ambion), was converted to cDNA by ReverTra Ace qPCR master mix using gDNA Remover (Toyobo) in accordance with the instructions made by the manufacturer. The sri-14 cDNA was amplified using the following two primers, was then digested with Nhe I and Kpn I, and was then inserted into a pPD-DEST vector (Invitrogen): […]

Test [7] concerns nematodes (C. elegans). As to conditions: sri-14 mutant; 4M NaCl. An excerpt:
The present inventor has used 4 M NaCl for osmotic stimulus, and has assayed an osmotic pressure avoidance behavior, as previously reported (38).

Setting [8] is: high concentration of diacetyl (10^−3 diluted).
The mark [9] stands for this setting: low (10^−5 diluted) and high (10^−3 diluted) concentration of diacetyl.
The mark [10] stands for this setting: low concentration of diacetyl (10^−5 diluted).
The mark [11] stands for this setting: high concentration of diacetyl (5 μl, undiluted).
[12] abbreviates: unc-103 (gf) expression, high concentration of diacetyl (5 μl, undiluted).

Turning to `CC(=O)C(C)=O` [diacetyl], in test [1] (setting [8]), the “Ca2+ response of ASH neurons, odr-10 mutant” value was “normally induced”; the “Ca2+ response of ASH neurons, sri-14 mutant” value is “significantly reduced”; the “Ca2+ response of ASH, ASH-specific knockdown of sri-14 in wild-type nematodes” value is recorded as “reduced”; the “calcium response of ASH neurons, AWA-ablated nematodes” value is on record as “enhances the calcium response”. Also, in test [1] (setting [8]), the “defect in ASH response of sri-14 mutant with ASH-specific expression of wild-type sri-14” value is recorded as “rescued”. Moreover, in test [1] (setting [9]), the “Ca2+ response of ASH neurons, wild-type nematodes” value is “Ca2+ response only to a high concentration of diacetyl was detected”. For the same molecule, the “calcium response of ASH neurons, unc-13 mutants vs wild type” value in test [1] (unc-13(e51), high concentration of diacetyl (10^−3 diluted)) was “significantly larger”. In test [2] (RNAi of sri-14, high concentration of diacetyl (5 μl, undiluted)), the “avoidance from diacetyl after RNAi of sri-14” value was “significantly strong defect in the avoidance”. In addition, the “response (chemotaxis) to diacetyl after knockdown of odr-10” value in test [2] (eri-1 mutant, RNAi of odr-10, low concentration (10; diluted) of diacetyl) is recorded as “specific defect in the response”. Besides, the “avoidance behavior from diacetyl after RNAi of srh-25, srh-79, srh-216 or srh-281” value in test [2] (high concentration of diacetyl (5 μl, undiluted), repeated assay) was “significant and reproducible defect”. In test [3] (setting [8]), the “calcium response of AWA neurons, odr-10 mutants and wild-type nematodes” value was “normally responded”. Also, in test [3] (setting [10]), the “calcium response of AWA neurons, odr-10 mutants” value is “did not respond” and the “calcium response of AWA neurons, wild-type nematodes or sri-14 mutants” value is listed as “intracellular calcium was increased”. Further, the “Ca2+ response of wild-type AWB neurons after removal of the smell” value in test [4] (setting [9]) is “slight Ca2+ response”. Further, the “Ca2+ response of AWB neurons with ectopic expression of SRI-14” value in test [4] (removal of high concentration of diacetyl (10^−3 diluted), vs wild-type AWB) is recorded as “significantly enhanced”. Also, in test [4] (removal of low concentration of diacetyl (10^−5 diluted)), the “Ca2+ response of AWB neurons with ectopic expression of SRI-14” value is listed as “did not change the response”. In test [5], the “Ca2+ response of AWC neurons after removal of diacetyl” value is “a Ca2+ response occurs”. Besides, in test [6] (high concentration of diacetyl), the “response of AWA and ASH double-ablated nematodes” value is on record as “more severe defect”; the “chemotaxis of odr-10 mutant” value is “normal chemotaxis”. Further, in test [6] (setting [11]), the “avoidance behavior of ASH-ablated nematodes” value is recorded as “avoidance behavior was inhibited”; the “avoidance defect of sri-14 mutant with ASH-specific expression of sri-14 cDNA” value is on record as “rescued”; the “avoidance defect of sri-14 mutant with AWA-, AWB- or AWC-specific expression of sri-14 cDNA” value was “partially rescued or was not rescued”; the “avoidance of AWA-ablated nematodes” value is “decrease in the avoidance”. In addition, in test [6] (setting [11]), the “chemotaxis of AWB- or AWC-ablated nematodes” value is given as “did not exhibit a defect in the chemotaxis”. The “attraction of AWA-ablated nematodes” value in test [6] (low concentration of diacetyl (10^−3 diluted)) was “decrease in the attraction”. Moreover, the “attraction of nematodes with interneurons inhibited” value in test [6] (low concentration of diacetyl (10^−3 diluted), except for MY) is “not influenced”. In addition, the “chemotaxis of odr-10 mutant” value in test [6] (low concentration of diacetyl) was “reduced attraction”. In test [6] (sri-14 (ok2865) mutant, high concentration of diacetyl), the “avoidance response of sri-14 mutant” value is recorded as “defect in the avoidance response”. Further, in test [6] (sri-14 mutant, low concentration of diacetyl), the “reaction of sri-14 loss-of-function mutant” value is reported as “normal reaction”. Further, in test [6] (setting [12]), the “response of nematodes with AIA, AIY or AIZ interneurons inhibited” value was “from an avoidance response to an attraction response” and the “response of nematodes with AIB interneurons inhibited” value is “attenuated the avoidance response”. Besides, in test [6] (wild-type nematode, ASH-specific RNAi of sri-14, high concentration of diacetyl (5 μl, undiluted)), the “avoidance from diacetyl, ASH-specific knockdown of sri-14” value is “defect in the avoidance”. In addition, the “avoidance from diacetyl, AWC-specific knockdown of sri-14” value in test [6] (wild-type nematode, AWC-specific RNAi of sri-14, high concentration of diacetyl (5 μl, undiluted)) is “abnormality was not observed”.
With `[Cl-].[Na+]` [NaCl], in test [7], the “avoidance behavior to high osmotic stimulus” value is given as “normal avoidance behavior”.
